Assay results: patent US11878975B2, “Substituted indole compounds useful as TLR inhibitors” (BRISTOL-MYERS SQUIBB COMPANY, priority 2017, dated 2024)

Legend:
Format in all cases: cell-based
human TLR9 = target: T1, human TLR9 (Homo sapiens, UniProt Q9NR96); experiment: TLR9 inhibition reporter assay (HEK-Blue cells, SEAP reporter, ODN2006 stimulation); settings: HEK-Blue cells overexpressing human TLR9, SEAP reporter, ODN2006 5 nM
T1 construct: host or cells: HEK-Blue cells
T1 sequence (Q9NR96 26-1032): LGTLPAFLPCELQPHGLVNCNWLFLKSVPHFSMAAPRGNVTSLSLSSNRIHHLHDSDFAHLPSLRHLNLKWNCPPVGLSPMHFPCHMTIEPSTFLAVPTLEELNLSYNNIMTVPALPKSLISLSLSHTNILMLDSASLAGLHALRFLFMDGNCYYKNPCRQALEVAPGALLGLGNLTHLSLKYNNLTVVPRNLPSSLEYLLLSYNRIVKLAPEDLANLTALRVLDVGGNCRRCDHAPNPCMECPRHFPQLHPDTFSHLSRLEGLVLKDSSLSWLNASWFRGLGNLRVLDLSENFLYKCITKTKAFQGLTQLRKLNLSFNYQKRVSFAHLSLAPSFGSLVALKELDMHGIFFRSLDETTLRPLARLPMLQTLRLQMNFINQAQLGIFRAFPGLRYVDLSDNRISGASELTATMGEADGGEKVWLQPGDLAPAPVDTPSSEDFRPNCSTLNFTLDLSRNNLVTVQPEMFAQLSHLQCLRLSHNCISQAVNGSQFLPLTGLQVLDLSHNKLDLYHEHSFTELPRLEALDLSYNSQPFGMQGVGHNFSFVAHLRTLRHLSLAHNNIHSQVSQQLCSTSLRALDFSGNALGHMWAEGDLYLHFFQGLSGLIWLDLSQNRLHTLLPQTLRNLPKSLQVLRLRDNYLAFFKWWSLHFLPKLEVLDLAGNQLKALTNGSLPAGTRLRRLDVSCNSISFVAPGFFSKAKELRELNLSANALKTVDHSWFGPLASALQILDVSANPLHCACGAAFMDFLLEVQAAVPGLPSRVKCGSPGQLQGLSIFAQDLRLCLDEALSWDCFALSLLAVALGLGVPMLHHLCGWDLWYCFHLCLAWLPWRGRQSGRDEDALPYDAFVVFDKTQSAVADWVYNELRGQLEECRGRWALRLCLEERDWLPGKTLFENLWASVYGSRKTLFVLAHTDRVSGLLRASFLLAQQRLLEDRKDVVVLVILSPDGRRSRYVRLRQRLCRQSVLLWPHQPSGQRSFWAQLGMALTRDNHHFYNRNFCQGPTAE
Method in brief: (§1)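 HEK-Blue cells with NF-κB/AP-1-driven SEAP reporter, pre-treated 30 min at room temperature with compound (0.05 nM-50 μM). Stimulants: gardiquimod 7.5 μM (TLR7), R848 15.9 μM (TLR8) or ODN2006 5 nM (TLR9). SEAP measured after 22 h at 37° C.; percent inhibition versus agonist-plus-DMSO and known-inhibitor wells.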

human TLR7 = target: T2, human TLR7 (Homo sapiens, UniProt Q9NYK1); experiment: TLR7 inhibition reporter assay (HEK-Blue cells, SEAP reporter, gardiquimod stimulation); settings: HEK-Blue cells overexpressing human TLR7, SEAP reporter, gardiquimod 7.5 μM
T2 construct: host or cells: HEK-Blue cells
T2 sequence (Q9NYK1 27-1049): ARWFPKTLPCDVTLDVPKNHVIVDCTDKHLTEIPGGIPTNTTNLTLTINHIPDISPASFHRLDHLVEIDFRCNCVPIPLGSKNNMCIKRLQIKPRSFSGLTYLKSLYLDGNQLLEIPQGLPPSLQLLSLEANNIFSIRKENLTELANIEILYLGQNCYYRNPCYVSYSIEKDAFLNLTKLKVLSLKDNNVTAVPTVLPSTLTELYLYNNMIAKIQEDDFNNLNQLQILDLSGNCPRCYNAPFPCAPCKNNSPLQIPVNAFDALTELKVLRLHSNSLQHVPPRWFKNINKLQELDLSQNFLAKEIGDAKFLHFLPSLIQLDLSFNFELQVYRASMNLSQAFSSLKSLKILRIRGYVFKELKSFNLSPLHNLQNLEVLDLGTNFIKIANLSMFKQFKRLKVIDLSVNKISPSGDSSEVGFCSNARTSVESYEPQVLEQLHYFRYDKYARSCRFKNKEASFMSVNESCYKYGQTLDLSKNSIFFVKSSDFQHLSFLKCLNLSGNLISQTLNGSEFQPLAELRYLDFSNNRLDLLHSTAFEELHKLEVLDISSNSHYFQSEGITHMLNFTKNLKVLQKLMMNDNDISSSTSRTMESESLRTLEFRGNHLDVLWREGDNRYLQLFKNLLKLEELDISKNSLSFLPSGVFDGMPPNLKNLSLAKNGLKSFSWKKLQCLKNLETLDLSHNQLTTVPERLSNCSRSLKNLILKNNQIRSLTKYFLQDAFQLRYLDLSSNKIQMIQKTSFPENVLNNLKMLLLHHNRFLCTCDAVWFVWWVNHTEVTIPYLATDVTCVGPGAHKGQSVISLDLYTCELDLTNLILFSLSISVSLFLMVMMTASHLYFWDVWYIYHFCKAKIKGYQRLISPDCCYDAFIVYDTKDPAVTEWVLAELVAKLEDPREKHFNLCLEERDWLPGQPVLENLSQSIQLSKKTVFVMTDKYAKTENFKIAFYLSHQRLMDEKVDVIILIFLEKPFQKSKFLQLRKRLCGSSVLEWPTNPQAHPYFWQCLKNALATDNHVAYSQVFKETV
Method in brief: as §1

human TLR8 = target: T3, human TLR8 (Homo sapiens, UniProt Q9NR97); experiment: TLR8 inhibition reporter assay (HEK-Blue cells, SEAP reporter, R848 stimulation); settings: HEK-Blue cells overexpressing human TLR8, SEAP reporter, R848 15.9 μM
T3 construct: host or cells: HEK-Blue cells
T3 sequence (Q9NR97 27-1041): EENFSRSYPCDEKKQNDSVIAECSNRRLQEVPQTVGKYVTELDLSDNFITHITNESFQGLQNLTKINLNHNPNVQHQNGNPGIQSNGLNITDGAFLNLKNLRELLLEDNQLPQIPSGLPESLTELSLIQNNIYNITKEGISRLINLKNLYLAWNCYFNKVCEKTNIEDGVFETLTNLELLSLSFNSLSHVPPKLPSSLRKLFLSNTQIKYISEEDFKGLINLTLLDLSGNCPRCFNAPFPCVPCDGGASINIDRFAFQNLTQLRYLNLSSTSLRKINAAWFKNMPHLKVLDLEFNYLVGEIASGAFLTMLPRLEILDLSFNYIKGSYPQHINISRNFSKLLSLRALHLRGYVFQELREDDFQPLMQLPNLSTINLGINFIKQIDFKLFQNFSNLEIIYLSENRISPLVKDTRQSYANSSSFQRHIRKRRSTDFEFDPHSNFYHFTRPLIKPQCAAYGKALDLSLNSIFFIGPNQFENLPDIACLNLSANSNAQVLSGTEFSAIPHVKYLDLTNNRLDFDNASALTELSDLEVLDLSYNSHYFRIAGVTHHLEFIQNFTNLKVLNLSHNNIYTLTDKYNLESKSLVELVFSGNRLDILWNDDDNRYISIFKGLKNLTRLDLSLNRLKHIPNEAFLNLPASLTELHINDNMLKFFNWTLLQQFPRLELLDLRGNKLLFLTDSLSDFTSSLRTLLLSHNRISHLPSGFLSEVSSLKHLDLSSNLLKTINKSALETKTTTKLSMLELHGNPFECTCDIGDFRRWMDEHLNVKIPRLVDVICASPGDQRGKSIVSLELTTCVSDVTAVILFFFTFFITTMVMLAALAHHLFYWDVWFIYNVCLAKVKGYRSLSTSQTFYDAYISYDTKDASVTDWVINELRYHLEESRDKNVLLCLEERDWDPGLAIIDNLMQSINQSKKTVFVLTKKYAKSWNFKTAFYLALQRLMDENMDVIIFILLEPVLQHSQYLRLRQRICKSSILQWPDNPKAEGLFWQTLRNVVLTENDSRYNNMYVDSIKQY
Method in brief: as §1

SMILES	IC50 (human TLR9) [µM]	IC50 (human TLR7) [nM]	IC50 (human TLR8) [nM]
Cc1cc(-c2[nH]c3ccc(C4CN(CCS(C)(=O)=O)CCO4)cc3c2C(C)C)cc(C)n1 (stereo not drawn) [Example 353]	> 50	95	31
Cc1cc(-c2[nH]c3ccc(C4CN(CC(C)(C)O)CCO4)cc3c2C(C)C)cn2ncnc12 (stereo not drawn) [Example 355, 1-(2-(3-isopropyl-2-(8-methyl-[1,2,4]triazolo[1,5-a]pyridin-6-yl)-1H-indol-5-yl)morpholino)-2-methylpropan-2-ol]	28.9	5	1.4
Cc1cc(-c2[nH]c3ccc(C4CN(CC(C)(C)O)CCO4)cc3c2C(C)C)cc(C)n1 (stereo not drawn) [Example 357]	1.97	36	5.4
Cc1cc(-c2[nH]c3ccc(C4CN(CC(C)(C)O)CCO4)cc3c2C(C)C)cc(C)n1 (stereo not drawn) [Example 358]	4.84	91	1.9
CCN(C)CC(=O)N1CCOC(c2ccc3[nH]c(-c4cc(OC)c5ncnn5c4)c(C(C)C)c3c2)C1 (stereo not drawn) [Example 359, 2-(ethyl(methyl)amino)-1-(2-(3-isopropyl-2-(8-methoxy-[1,2,4]triazolo[1,5-a]pyridin-6-yl)-1H-indol-5-yl)morpholino)ethanone]	3.63	0.56	4.7
COc1cc(-c2[nH]c3ccc(C4CN(C(=O)CN5CCS(=O)(=O)CC5)CCO4)cc3c2C(C)C)cn2ncnc12 (stereo not drawn) [Example 360]	> 50	11	68
COc1cc(-c2[nH]c3ccc(C4CN(C(=O)CNC5(C)COC5)CCO4)cc3c2C(C)C)cn2ncnc12 (stereo not drawn) [Example 361]	5.32	0.91	2.5
Cc1cc(-c2[nH]c3ccc(C4CN5CCC4CC5)cc3c2C(C)C)cn2ncnc12 (stereo not drawn) [Example 364]	1.05	0.64	3.8
Cc1cc(-c2[nH]c3ccc(C4CN5CCC4CC5)cc3c2C(C)C)cn2ncnc12 (stereo not drawn) [Example 365]	0.745	0.22	1.6
Cc1cc(-c2[nH]c3ccc(C4CCC5(CC4)NC(=O)NC5=O)cc3c2C(C)C)cc(C)n1 (stereo not drawn) [Example 366, 8-(2-(2,6-dimethylpyridin-4-yl)-3-isopropyl-1H-indol-5-yl)-1,3-diazaspiro[4.5]decane-2,4-dione]	21.7	6	183
COc1cc(-c2[nH]c3ccc(C4CNC(C)(C)CO4)cc3c2C(C)C)cn2ncnc12 (stereo not drawn) [Example 368]	2.48	0.45	1.6
COc1cc(-c2[nH]c3ccc(C4CNC(C)(C)CO4)cc3c2C(C)C)cn2ncnc12 (stereo not drawn) [Example 369]	2.62	0.5	0.48
Cc1c(-c2[nH]c3ccc(C4CNC(C)(C)CO4)cc3c2C(C)C)cn2ncnc2c1C (stereo not drawn) [Example 370]	14.8	2	0.35
Cc1c(-c2[nH]c3ccc(C4CNC(C)(C)CO4)cc3c2C(C)C)cn2ncnc2c1C (stereo not drawn) [Example 371]	15.5	0.92	1.3
COc1cc(-c2[nH]c3ccc(C4CN(C(=O)CN(C)C)C(C)(C)CO4)cc3c2C(C)C)cn2ncnc12 (stereo not drawn) [Example 374]	5.9	20	110
COc1cc(-c2[nH]c3ccc(C4CN(C)C(C)(C)CO4)cc3c2C(C)C)cn2ncnc12 (stereo not drawn) [Example 377]	4.72	2	5.2
COc1cc(-c2[nH]c3ccc(C4CN(C5COC5)C(C)(C)CO4)cc3c2C(C)C)cn2ncnc12 (stereo not drawn) [Example 378]	> 50	50	176
COCCN1CC(c2ccc3[nH]c(-c4cc(C)c5ncnn5c4)c(C(C)C)c3c2)OCC1(C)C (stereo not drawn) [Example 382]	7.17	15	3.4
COCCN1CC(c2ccc3[nH]c(-c4cc(C)c5ncnn5c4)c(C(C)C)c3c2)OCC1(C)C (stereo not drawn) [Example 383]	13.7	9	41
Cc1cc(-c2[nH]c3ccc(C4CN(CCS(C)(=O)=O)C(C)(C)CO4)cc3c2C(C)C)cn2ncnc12 (stereo not drawn) [Example 384]	30.1	13	11
Cc1cc(-c2[nH]c3ccc(C4CN(CC(C)(C)O)C(C)(C)CO4)cc3c2C(C)C)cn2ncnc12 (stereo not drawn) [Example 385]	20.4	14	48
Cc1c(-c2[nH]c3ccc(C4CN(CC(=O)N(C)C)C(C)(C)CO4)cc3c2C(C)C)cn2ncnc2c1C (stereo not drawn) [Example 386]	> 50	34	49
Cc1c(-c2[nH]c3ccc(C4CN(CC(=O)N(C)C)C(C)(C)CO4)cc3c2C(C)C)cn2ncnc2c1C (stereo not drawn) [Example 387]	> 50	86	44
CNC(=O)CN1CC(c2ccc3[nH]c(-c4cn5ncnc5c(C)c4C)c(C(C)C)c3c2)OCC1(C)C (stereo not drawn) [Example 388]	> 50	37	41
